Measurements from patent publication US20080293727A1, “Novel sulfonamide inhibitors of aspartyl protease” (priority 1992, published 2008).
Where a name gives a salt, the structure may show the parent alone. Read-outs that look alike come from different tables or passages of the source.

Legend:
[1] = molecular target: HIV-1 protease (Human immunodeficiency virus type 1 group M subtype B, UniProt P04585); experiment: Inhibition constants against HIV-1 protease (method of Pennington et al.); type: biochemical
Source text: We measured the inhibition constants of the compounds listed in Table VII against HIV-1 protease using the above-cited method of Pennington et al.

[2] = test system: HIVIIIb in CCRM-CEM cells; experiment: Anti-viral potency in CCRM-CEM cells acutely infected with HIVIIIb, extracellular p24 antigen readout (method of Meek et al.); type: cell-based, HIV-1
Description: Compounds of formula I were tested for their antiviral potency in several virological assays.
The effect of the compounds on inhibiting the replication of the virus was measured by determining the HIV extracellular p24 antigen concentration using a commercial enzyme immunoassay (obtained from Coulter Corporation, Hialeah, Fla.).
In Table VIII, the following classifications have been employed: • A: inhibits HIV replication at concentration of 100 nM or less. • B: inhibits HIV replication at concentration of between 101 and 1,000 nM. • C: inhibits HIV replication at a concentration of between 1,001 and 10,000 nM. • D: inhibits HIV replication at a concentration of between 10,001 and 40,000 nM. • ND: not tested.

[3] = HIV-1 protease, read-out: Ki value
[4] = CCRM-CEM cells, HIV replication, read-out: IC90 Range
[5] = Human immunodeficiency virus 1, read-out: IC90 Range

| Structure (SMILES) | Ki [1, 3] | IC90 [2, 4] | IC90 [2, 5] | Ki [1] | IC90 ([2]; Human immunodeficiency virus 1, CCRM-CEM cells, HIV replication, read-out: IC90 Range) |
| --- | --- | --- | --- | --- | --- |
| CC(=O)Nc1ccc(S(=O)(=O)N(CC(C)C)CC(O)[C@H](Cc2ccccc2)NC(=O)C(CC(N)=O)C(=O)OCc2ccncc2)cc1 (stereo partly drawn) [Compound 23, N-1-(3-((4-Acetylamino-benzenesulfonyl)-isobutyl-amino)-(1S,2 syn)-1-benzyl-2-hydroxy-propyl)-2-(pyridin-4-yl-methoxycarbonyl)-succinamide] | 0.0015 µM | 0.101 to 1 µM |  |  |  |
| CC(C)CN(C[C@@H](O)[C@H](Cc1ccccc1)NC(=O)C(CC(N)=O)C(=O)OCc1ccccn1)S(=O)(=O)c1ccc(F)cc1 (stereo partly drawn) [Compound 26, N-1-(3-((4-Fluoro-benzenesulfonyl)-isobutyl-amino)-(1S,2 syn)-1-benzyl-2-hydroxy-propyl)-2-(pyridin-2-yl-methoxycarbonyl)-succinamide] | 0.0001 µM | 0.101 to 1 µM |  |  |  |
| CC(C)CN(C[C@@H](O)[C@H](Cc1ccccc1)NC(=O)OC(C)(C)C)S(=O)(=O)c1ccccc1F [Compound 47] | 0.004 µM |  | 1 to 10 µM |  |  |
| CC(C)CN(CC(O)[C@H](Cc1ccccc1)NC(=O)O[C@@H]1CCOC1)S(=O)(=O)c1ccc(F)cc1 (stereo partly drawn) [Compound 52, 4-Fluoro-N-((2 syn,3S)-2-hydroxy-4-phenyl-3-((R)-tetrahydrofuran-3-yloxycarbonylamino)-butyl)-N-isobutyl-benzenesulfonamide and 4-Fluoro-N-((2 syn,3S)-2-hydroxy-4-phenyl-3-((R)-tetrahydrofuran-3-yloxycarbonylamino)-butyl)-N-isobutyl-benzenesulfonamide] | 0.0004 µM | 0.101 to 1 µM |  |  |  |
| CC(C)CN(CC(O)C(Cc1ccccc1)NC(=O)OCC1CCOC1)S(=O)(=O)c1ccc(Cl)c(Cl)c1 (stereo not drawn) [Compound 85] | 0.004 µM |  | 1 to 10 µM |  |  |
| CC(=O)Nc1ccc(S(=O)(=O)N(CC(C)C)CC(O)C(Cc2ccccc2)NC(=O)OC2CCOC2)cc1 [Compound 86, N-(4-(((2 syn,3S)-2-Hydroxy-4-phenyl-3-((R)-tetrahydrofuran-3-yloxycarbonylamino)-butyl)-isobutyl-sulfamoyl-phenyl)-acetamide and N-(4-(((2 syn,3S)-2-Hydroxy-4-phenyl-3-((S)-tetrahydrofuran-3-yloxycarbonylamino)-butyl)-isobutyl-sulfamoyl)-phenyl)-acetamide] | 0.005 µM |  | 0.101 to 1 µM |  |  |
| CC(C)CN(CC(O)[C@H](Cc1ccccc1)NC(=O)O[C@H]1CCOC1)S(=O)(=O)c1cccnc1 (stereo partly drawn) [Compound 144, Pyridine-3-sulfonic acid ((2 syn,3S)-2-hydroxy-4-phenyl-3-((S)-tetrahydrofuran-3-yloxycarbonylamino)-butyl)-isobutyl-amide, trifluoroacetic acid salt] | 0.008 µM | 0.101 to 1 µM |  |  |  |
| CC(=O)N1CCc2ccc(S(=O)(=O)N(CC3CCCC3)CC(O)[C@H](Cc3ccccc3)NC(=O)O[C@H]3CCOC3)cc21 (stereo partly drawn) [Compound 157, 1-Acetyl-2,3-dihydro-1H-indole-6-sulfonic acid cyclopentylmethyl-((2 syn, 3S)-2-hydroxy-4-phenyl-3-((S)-tetrahydrofuran-3-yloxycarbonylamino)-butyl)-amide] | 0.0007 µM | 0.101 to 1 µM |  |  |  |
| CCC(C)C(NC(=O)OCc1ccccc1)C(=O)NC(Cc1ccccc1)C(O)CN(CC(C)C)S(=O)(=O)c1ccc(F)c(NC(C)=O)c1 [Compound 187, Benzyloxycarbonyl-(L)-isoleucine-N-(5-((3-amino-(2 syn,3S)-2-hydroxy-4-phenyl-butyl)-isobutyl-sulfamoyl)-2-fluoro-phenyl)-acetamide] | 0.0003 µM |  | 0.101 to 1 µM |  |  |
| CCC(C)C(NC(=O)c1cnc2ccccc2n1)C(=O)NC(Cc1ccccc1)C(O)CN(CC(C)C)S(=O)(=O)c1ccc(F)c(NC(C)=O)c1 (stereo not drawn) [Compound 188] | 0.0115 µM |  | 1 to 10 µM |  |  |
| CC(C)CN(C[C@@H](O)[C@H](Cc1ccccc1)NC(=O)O[C@H]1CCOC1)S(=O)(=O)c1ccc(O)c(N)c1 [Compound 1004] | 0.0002 µM |  | < 0.1 µM |  |  |
| Nc1ccc(S(=O)(=O)N(CC2CCCC2)C[C@@H](O)[C@H](Cc2ccccc2)NC(=O)O[C@H]2CCOC2)cc1N [Compound 1015] |  |  |  | 0.019 µM | < 0.1 µM |
